Experimental data reported in patent US7928107B2, “Quinazolines useful as modulators of ion channels” (Vertex Pharmaceuticals Incorporated, priority 2004, dated 2011).
pIC50: −log10 of the molar value.

Biological target: NaV 1.8 channel (Homo sapiens, UniProt Q9Y5Y9)
Experiment: Activity against NaV 1.8 channel (optical membrane potential assay)
Type: cell-based
Experimental: Compounds of the invention are useful as antagonists of voltage-gated sodium ion channels. Antagonist properties of test compounds were assessed as follows. Cells expressing the NaV of interest were placed into microtiter plates. After an incubation period, the cells were stained with fluorescent dyes sensitive to the transmembrane potential. The test compounds were added to the microtiter plate. The cells were stimulated with either a chemical or electrical means to evoke a NaV dependent membrane potential change from unblocked channels, which was detected and measured with trans-membrane potential-sensitive dyes. Antagonists were detected as a decreased membrane potential response to the stimulus. The optical membrane potential assay utilized voltage-sensitive FRET sensors described by Gonzalez and Tsien (See, Gonzalez, J. E. and R. Y. Tsien (1995) “Voltage sensing by fluorescence resonance energy transfer in single cells” Biophys J 69(4): 1272-80, and Gonzalez, J. E. and R. Y. Tsien (1997) “Improved indicators of cell membrane potential that use fluorescence resonance energy transfer” Chem Biol 4(4): 269-77) in combination with instrumentation for measuring fluorescence changes such as the Voltage/Ion Probe Reader (VIPR®) (See, Gonzalez, J. E., K. Oades, et al. (1999) “Cell-based assays and instrumentation for screening ion-channel targets” Drug Discov Today 4(9): 431-439).
24 hours before the assay on VIPR, CHO cells endogenously expressing a NaV1.2 type voltage-gated NaV are seeded in 96-well poly-lysine coated plates at 60,000 cells per well. Other subtypes are performed in an analogous mode in a cell line expressing the NaV of interest. • 1) On the day of the assay, medium is aspirated and cells are washed twice with 225 μL of Bath Solution #2 (BS#2). • 2) A 15 uM CC2-DMPE solution is prepared by mixing 5 mM coumarin stock solution with 10% Pluronic 127 1:1 and then dissolving the mix in the appropriate volume of BS#2. • 3) After bath solution is removed from the 96-well plates, the cells are loaded with 80 μL of the CC2-DMPE solution. Plates are incubated in the dark for 30 minutes at room temperature. • 4) While the cells are being stained with coumarin, a […] solution in BS#2 is prepared. In addition to DiSBAC2(3), this solution should contain 0.75 mM ABSCl and […] (prepared from 10 mM EtOH stock, Sigma #V-5754). • 5) After 30 minutes, CC2-DMPE is removed and the cells are washed twice with 225 μL of BS#2. As before, the residual volume should be 40 μL. • 6) Upon removing the bath, the cells are loaded with 80 μL of the DiSBAC2(3) solution, after which test compound, dissolved in DMSO, is added to achieve the desired test concentration to each well from the drug addition plate and mixed thoroughly. The volume in the well should be roughly 121 μL. The cells are then incubated for 20-30 minutes. • 7) Once the incubation is complete, the cells are ready to be assayed on VIPR® with a sodium add back protocol. 120 μL of Bath solution #1 is added to stimulate the NaV dependent depolarization. […] was used as an antagonist positive control for block of the NaV channel.
Data are analyzed and reported as normalized ratios of background-subtracted emission intensities measured in the 460 nm and 580 nm channels. Background intensities are then subtracted from each assay channel. Background intensities are obtained by measuring the emission intensities during the same time periods from identically treated assay wells in which there are no cells. The response as a function of time is then reported as the ratios obtained using the following formula: […]
The data is further reduced by calculating the initial (Ri) and final (Rf) ratios. These are the average ratio values during part or all of the pre-stimulation period, and during sample points during the stimulation period. The response to the stimulus R=Rf/Ri is then calculated. […]

Sequence of NaV 1.8 channel (Q9Y5Y9 whole entry): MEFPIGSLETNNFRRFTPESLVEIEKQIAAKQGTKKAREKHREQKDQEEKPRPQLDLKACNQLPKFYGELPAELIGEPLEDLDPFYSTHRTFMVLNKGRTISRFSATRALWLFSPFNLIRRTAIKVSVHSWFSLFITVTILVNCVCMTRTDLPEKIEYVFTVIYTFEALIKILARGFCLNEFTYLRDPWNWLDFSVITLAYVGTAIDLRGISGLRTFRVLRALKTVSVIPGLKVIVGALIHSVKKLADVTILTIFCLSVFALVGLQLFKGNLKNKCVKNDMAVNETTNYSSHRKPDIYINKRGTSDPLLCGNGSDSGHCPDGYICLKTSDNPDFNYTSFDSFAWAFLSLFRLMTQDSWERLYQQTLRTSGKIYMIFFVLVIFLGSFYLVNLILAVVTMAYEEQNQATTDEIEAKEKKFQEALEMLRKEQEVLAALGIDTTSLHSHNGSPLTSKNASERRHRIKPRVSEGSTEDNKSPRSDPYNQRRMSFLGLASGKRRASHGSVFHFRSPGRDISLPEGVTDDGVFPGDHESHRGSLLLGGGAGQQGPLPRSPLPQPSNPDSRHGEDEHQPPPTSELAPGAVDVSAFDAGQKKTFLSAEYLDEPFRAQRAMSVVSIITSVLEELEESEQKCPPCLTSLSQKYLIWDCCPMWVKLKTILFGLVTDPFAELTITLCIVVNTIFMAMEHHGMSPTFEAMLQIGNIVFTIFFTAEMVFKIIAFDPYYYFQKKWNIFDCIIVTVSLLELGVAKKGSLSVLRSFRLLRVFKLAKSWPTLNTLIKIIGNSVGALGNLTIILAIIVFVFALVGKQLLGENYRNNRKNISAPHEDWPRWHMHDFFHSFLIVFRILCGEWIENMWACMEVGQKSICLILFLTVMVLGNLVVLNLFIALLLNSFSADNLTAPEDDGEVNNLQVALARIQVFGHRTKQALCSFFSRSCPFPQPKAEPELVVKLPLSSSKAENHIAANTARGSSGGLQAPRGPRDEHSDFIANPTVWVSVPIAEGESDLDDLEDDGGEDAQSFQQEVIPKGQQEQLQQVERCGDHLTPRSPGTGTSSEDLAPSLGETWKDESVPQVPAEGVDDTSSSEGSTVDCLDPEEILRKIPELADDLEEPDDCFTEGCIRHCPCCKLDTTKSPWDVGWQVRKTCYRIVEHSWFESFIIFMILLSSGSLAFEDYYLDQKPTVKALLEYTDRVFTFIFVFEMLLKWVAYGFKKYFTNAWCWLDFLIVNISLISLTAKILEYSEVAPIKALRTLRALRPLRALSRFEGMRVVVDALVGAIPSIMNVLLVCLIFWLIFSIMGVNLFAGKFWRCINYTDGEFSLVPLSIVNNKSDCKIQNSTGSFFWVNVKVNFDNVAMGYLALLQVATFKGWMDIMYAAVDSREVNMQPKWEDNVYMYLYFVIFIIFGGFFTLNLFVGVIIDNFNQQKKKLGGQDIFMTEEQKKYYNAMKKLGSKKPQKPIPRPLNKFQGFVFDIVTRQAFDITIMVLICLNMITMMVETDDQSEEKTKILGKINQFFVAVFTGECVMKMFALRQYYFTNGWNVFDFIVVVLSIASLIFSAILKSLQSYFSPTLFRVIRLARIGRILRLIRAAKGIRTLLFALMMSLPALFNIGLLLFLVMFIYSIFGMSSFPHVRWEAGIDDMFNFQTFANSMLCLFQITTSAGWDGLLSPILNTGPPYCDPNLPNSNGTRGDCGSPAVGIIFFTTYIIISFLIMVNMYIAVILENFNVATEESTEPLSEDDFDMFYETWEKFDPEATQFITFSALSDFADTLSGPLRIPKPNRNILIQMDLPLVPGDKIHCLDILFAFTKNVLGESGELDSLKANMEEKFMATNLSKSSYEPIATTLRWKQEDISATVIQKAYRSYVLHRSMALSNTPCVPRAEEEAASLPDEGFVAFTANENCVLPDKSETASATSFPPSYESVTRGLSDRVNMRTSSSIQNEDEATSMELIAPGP

Row | SMILES | pIC50
1 | Cc1ccc2c(N3CCN(C(=O)[C@H](O)CC(N)=O)CC3)nc(-c3ccccc3O)nc2c1 [Example 154, (R)-3-Hydroxy-4-(4-(2-(2-hydroxyphenyl)-7-methylquinazolin-4-yl)piperazin-1-yl)-4-oxobutanamide] | < 5.00
2 | Cc1ccc2c(N3CCN(C(=O)[C@H](O)CC(C)C)C[C@@H]3C(C)C)nc(-c3ccccc3O)nc2c1 [Example 155, (R)-2-Hydroxy-1-((S)-4-(2-(2-hydroxyphenyl)-7-methylquinazolin-4-yl)-3-isopropylpiperazin-1-yl)-4-methylpentan-1-one] | < 5.00
3 | Cc1ccc2c(N3CCN(C(=O)OCc4cccnc4)CC3)nc(-c3c(O)cccc3F)nc2c1 [Example 156, (Pyridin-3-yl)methyl 4-(2-(2-fluoro-6-hydroxyphenyl)-7-methylquinazolin-4-yl)piperazine-1-carboxylate] | 5.00 to 5.70
4 | Cc1ccc2c(N3CCN(C(=O)OCc4ccccc4)CC3CO)nc(-c3ccccc3O)nc2c1 (stereo not shown) [Example 157, 3-Hydroxymethyl-4-[2-(2-hydroxy-phenyl)-7-methyl-quinazolin-4-yl]-piperazine-1-carboxylic acid benzyl ester] | 5.00 to 5.70
5 | C#CC(O)C(=O)N1CCN(c2nc(-c3ccccc3O)nc3cc(C)ccc23)CC1 (stereo not shown) [Example 158, 2-Hydroxy-1-(4-(2-(2-hydroxyphenyl)-7-methylquinazolin-4-yl)piperazin-1-yl)but-3-yn-1-one] | < 5.00
6 | CCCCC(O)C(=O)N1CCN(c2nc(-c3ccccc3O)nc3ccccc23)CC1 (stereo not shown) [Example 159, 2-Hydroxy-1-(4-(2-(2-hydroxyphenyl)quinazolin-4-yl)piperazin-1-yl)hexan-1-one] | 5.00 to 5.70
7 | O=C(OCC1CCCCO1)N1CCN(c2nc(-c3ccccc3O)nc3ccc(F)cc23)CC1 (stereo not shown) [Example 160, (Tetrahydro-2H-pyran-2-yl)methyl 4-(6-fluoro-2-(2-hydroxyphenyl)quinazolin-4-yl)piperazine-1-carboxylate] | < 5.00
8 | Cc1ccc2c(N3CCN(C(=O)OCC4CCOC4)CC3)nc(-c3c(O)cccc3F)nc2c1 (stereo not shown) [Example 162, (Tetrahydrofuran-3-yl)methyl 4-(2-(2-fluoro-6-hydroxyphenyl)-7-methylquinazolin-4-yl)piperazine-1-carboxylate] | 5.00 to 5.70
9 | Cc1ccc2c(N3CCN(C(=O)O[C@H]4CCOC4)CC3)nc(-c3c(O)cccc3F)nc2c1 [Example 163, (S)-Tetrahydrofuran-3-yl 4-(2-(2-fluoro-6-hydroxyphenyl)-7-methylquinazolin-4-yl)piperazine-1-carboxylate] | 5.00 to 5.70
10 | Cc1ccc2c(N3CCN(C(=O)[C@H](O)CC(C)(C)O)CC3)nc(-c3ccccc3O)nc2c1 [Example 164, (R)-2,4-Dihydroxy-1-(4-(2-(2-hydroxyphenyl)-7-methylquinazolin-4-yl)piperazin-1-yl)-4-methylpentan-1-one] | < 5.00
11 | CCC(C)(O)C(=O)N1CCN(c2nc(-c3ccccc3O)nc3cc(C)ccc23)CC1 (stereo not shown) [Example 165, 2-Hydroxy-1-(4-(2-(2-hydroxyphenyl)-7-methylquinazolin-4-yl)piperazin-1-yl)-2-methylbutan-1-one] | 5.00 to 5.70
12 | Cc1ccc2c(N3CCN(C(=O)[C@@H](O)C(C)(C)C)CC3)nc(-c3ccccc3O)nc2c1 [Example 166, (S)-2-Hydroxy-1-(4-(2-(2-hydroxyphenyl)-7-methylquinazolin-4-yl)piperazin-1-yl)-3,3-dimethylbutan-1-one] | < 5.00
13 | Cc1ccc2c(N3CCN(C(=O)C(O)c4ccc(F)cc4)CC3)nc(-c3c(O)cccc3F)nc2c1 (stereo not shown) [Example 167, 1-(4-(2-(2-Fluoro-6-hydroxyphenyl)-7-methylquinazolin-4-yl)piperazin-1-yl)-2-(4-fluorophenyl)-2-hydroxyethanone] | < 5.00
14 | Cc1ccc2c(N3CCN(C(=O)[C@H](O)CC(C)C)CC3)nc(-c3ccccc3O)nc2c1 [Example 168, (R)-2-Hydroxy-1-(4-(2-(2-hydroxyphenyl)-7-methylquinazolin-4-yl)piperazin-1-yl)-4-methylpentan-1-one] | 5.00 to 5.70
15 | CNCC(=O)N(C)CC(=O)O[C@H](CC(C)C)C(=O)N1CCN(c2nc(-c3ccccc3O)nc3cc(C)ccc23)CC1 [Example 169, (R)-[Methyl-(2-methylamino-acetyl)-amino]-acetic acid 1-{4-[2-(2-hydroxy-phenyl)-7-methyl-quinazolin-4-yl]-piperazine-1-carbonyl}-3-methyl-butyl ester] | < 5.00
16 | Cc1ccc2c(N3CCN(C(=O)C(O)c4ccc(F)cc4)CC3)nc(-c3ccccc3O)nc2c1 (stereo not shown) [Example 170, 2-(4-Fluorophenyl)-2-hydroxy-1-(4-(2-(2-hydroxyphenyl)-7-methylquinazolin-4-yl)piperazin-1-yl)ethanone] | < 5.00

Row | SMILES | pIC50
17 | Cc1ccc2c(N3CCN(C(=O)[C@H](O)CC(C)C)CC3CO)nc(-c3ccccc3O)nc2c1 (stereo partly drawn) [Example 172, (R)-2-Hydroxy-1-{3-hydroxymethyl-4-[2-(2-hydroxy-phenyl)-7-methyl-quinazolin-4-yl]-piperazin-1-yl}-4-methyl-pentan-1-one] | < 5.00
18 | C[C@@H](O)CC(=O)N1CCN(c2nc(-c3ccccc3O)nc3ccccc23)CC1 [Example 173, (R)-3-Hydroxy-1-(4-(2-(2-hydroxyphenyl)quinazolin-4-yl)piperazin-1-yl)butan-1-one] | < 5.00
19 | CCCC(O)C(=O)N1CCN(c2nc(-c3ccccc3O)nc3ccccc23)CC1 (stereo not shown) [Example 174, 2-Hydroxy-1-(4-(2-(2-hydroxyphenyl)quinazolin-4-yl)piperazin-1-yl)pentan-1-one] | 5.00 to 5.70
20 | Cc1ccc2c(N3CCN(C(=O)CCN4CCCCC4)CC3)nc(-c3ccccc3O)nc2c1 [Example 175, 1-(4-(2-(2-Hydroxyphenyl)-7-methylquinazolin-4-yl)piperazin-1-yl)-3-(piperidin-1-yl)propan-1-one] | < 5.00
21 | CC[C@@H](C)[C@@H](O)C(=O)N1CCN(c2nc(-c3ccccc3O)nc3cc(C)ccc23)CC1 [Example 176, (2R,3R)-2-Hydroxy-1-(4-(2-(2-hydroxyphenyl)-7-methylquinazolin-4-yl)piperazin-1-yl)-3-methylpentan-1-one] | < 5.00
22 | Cc1ccc2c(N3CCN(C(=O)[C@H](O)C(F)(F)F)CC3)nc(-c3ccccc3O)nc2c1 [Example 177, (S)-3,3,3-Trifluoro-2-hydroxy-1-(4-(2-(2-hydroxyphenyl)-7-methylquinazolin-4-yl)piperazin-1-yl)propan-1-one] | 5.00 to 5.70
23 | CC(O)(C(=O)N1CCN(c2nc(-c3ccccc3O)nc3ccccc23)CC1)C(F)(F)F (stereo not shown) [Example 178, 2-(Trifluoromethyl)-2-hydroxy-1-(4-(2-(2-hydroxyphenyl)quinazolin-4-yl)piperazin-1-yl)propan-1-one] | < 5.00
24 | Cc1ccc2c(N3CCN(C(=O)C(O)CCl)CC3)nc(-c3ccccc3O)nc2c1 (stereo not shown) [Example 179, 3-Chloro-2-hydroxy-1-(4-(2-(2-hydroxyphenyl)-7-methylquinazolin-4-yl)piperazin-1-yl)propan-1-one] | < 5.00
25 | Cc1ccc2c(N3CCN(C(=O)C(O)CC(C)C)CC3)nc(-c3ccccc3O)nc2c1 (stereo not shown) [Example 180] | 5.00 to 5.70
26 | CCC(C)(O)CC(=O)N1CCN(c2nc(-c3ccccc3O)nc3cc(C)ccc23)CC1 (stereo not shown) [Example 181] | < 5.00
27 | Cc1ccc2c(N3CCN(C(=O)O[C@@H]4CCOC4)CC3)nc(-c3ccccc3O)nc2c1 [Example 182] | 5.00 to 5.70
28 | Cc1ccc2c(N3CCN(C(=O)O[C@H]4CCOC4)CC3)nc(-c3ccccc3O)nc2c1 [Example 183] | 5.00 to 5.70
29 | Cc1ccc2c(N3CCN(C(=O)OCC4CCOC4)CC3)nc(-c3ccccc3O)nc2c1 (stereo not shown) [Example 184] | 5.00 to 5.70
30 | Cc1ccc2c(N3CCN(C(=O)OCC4CCCO4)CC3)nc(-c3ccccc3O)nc2c1 (stereo not shown) [Example 185] | 5.00 to 5.70
31 | Cc1ccc2c(N3CCN(C(=O)C(=O)C(C)C)CC3)nc(-c3ccccc3O)nc2c1 [Example 186] | > 5.70
